# Experimental data from PubChem BioAssay AID1996.
# Conditions: buffer; pH 7.4; 200.0 µM
row,Compound,solubility kinetic [µg/mL]
1,CCOc1ccc(NC(=S)NCc2ccc3[nH]c(C)cc3c2)cc1,11.4
2,O=C(NC1CCS(=O)(=O)C1)c1sc2ccccc2c1Cl (stereo not drawn),12.2
3,O=C(O)CCc1nc2cc(Cl)ccc2n(Cc2ccccc2)c1=O,> 51.4
4,CN1CCN(/N=C/c2c[nH]c3ccccc23)CC1,> 36.3
5,COc1ccc(C(=O)COC(=O)c2ccccn2)cc1OC,44.5
6,COC(=O)CCC(=O)N1CCCC(CO)(Cc2ccccc2F)C1 (stereo not drawn),> 50.6
7,Cc1cc(OCC(=O)N2CCN(CC(=O)N3CCOCC3)CC2)c(C(C)C)cc1Cl,> 65.7
8,O=C(Nc1ccc(Br)cn1)c1cccc2ccccc12,0.5
9,COC(=O)CNC(=O)COC(=O)/C=C/c1ccccc1[N+](=O)[O-],41.3
10,O=C(C1CCCN(S(=O)(=O)c2ccc(Cl)cc2)C1)N1CCCC1 (stereo not drawn),48.7
11,Nc1ccc(C(=O)OCc2ccncc2)cc1[N+](=O)[O-],14
12,O=C(NCC(O)CO)c1csc(Nc2cccc3ccccc23)n1 (stereo not drawn),38.5
13,COC(=O)c1c(C)oc(C)c1S(=O)(=O)NCc1ccc(OC)cc1,> 53
14,Cc1ccc(N(Cc2ccccc2O)C(=O)c2ccccc2F)cc1,< 0.7
15,Cc1ccc(OCC(O)CNCc2ccccc2)cc1C (stereo not drawn),36.2
16,CC(C)[C@H](NS(=O)(=O)c1ccccc1)C(=O)OCC(=O)NC(=O)NC1CCCCC1,> 65.9
17,CN(C)C(=O)C1CC(=O)OC12CCCCC2 (stereo not drawn),28.2
18,N#Cc1ccccc1NC(=O)COC(=O)c1ccc(F)cc1F,11.1
19,Nc1c(Cl)cnc(C(Cl)(Cl)Cl)c1Cl,19.6
20,CCC(C)(C)c1ccc(OCC(=O)Nc2ccncc2)cc1,2.6
21,O=C(CN1C(=O)C(=O)N(C2CCCC2)C1=O)Nc1cc(Cl)ccc1[N+](=O)[O-],26.6
22,COc1ccccc1NC(=O)COC(=O)CNC(=O)C1CCCCC1,> 52.3
23,Cc1nc(CN(C)Cc2nc(Cc3ccccc3Cl)no2)cs1,44.3
24,COCCCNC(=O)c1cc(C(=O)Cc2ccccc2)c[nH]1,> 45.1

row,Compound,solubility kinetic [µg/mL]
1,O=C(/C=C/Nc1ccc(F)cc1F)c1ccc(Br)cc1,< 0.7
2,CN(Cc1cccc(F)c1)C(=O)c1cc(=O)[nH]c2ccccc12,44.3
3,O=C(CN1C(=O)c2ccccc2C1=O)NCc1ccc(F)cc1,6.5
4,CN(CC(=O)Nc1ccc(F)c(F)c1F)C(=O)c1ccc(N2CCCC2=O)cc1,53.4
5,Cc1cc[n+](-c2ccccc2)c2ccccc12.[Cl-],17.3
6,O=C(Nc1ccc(CN2CCOCC2)cc1)c1ccco1,> 42.9
7,O=C(NCc1ccccc1Cl)NC(=O)c1csc([N+](=O)[O-])c1,< 0.2
8,COc1cc(/C=C/C(=O)OCC(=O)Nc2cccc(F)c2)ccc1O,24.6
9,COc1cccc2[nH]c3c(N4CCc5ccccc5C4)ncnc3c12,0.9
10,CC(=O)C1=C(O)C(=O)N(Cc2ccccc2)C1c1ccc(N(C)C)cc1 (stereo not drawn),51.6
11,Cc1occc1C(=O)Nc1ccc([N+](=O)[O-])cc1Br,1.7
12,COc1ccc(N(CC(=O)N2CCOCC2)S(C)(=O)=O)cc1Cl,> 54.4
13,CC1=C(C)CC(C(=O)NCc2c(F)cccc2Cl)C(C(=O)O)C1 (stereo not drawn),> 51
14,O=S(=O)(c1ccc(Cl)nc1)N1CCCCC1,> 39.1
15,CN(C)c1ccc(C(CN)c2c[nH]c3ccccc23)cc1 (stereo not drawn),30.2
16,Cl.OC12CC3C[C@H](C1)C(N1CCOCC1)[C@@H](C3)C2 (stereo partly drawn),36.8
17,Cc1ccc(NC(=O)C2CCCN(c3ncccn3)C2)c(C)c1 (stereo not drawn),8.5
18,OCc1ccnc2oc3ccccc3c12,28.8
19,CCOC(=O)C1=C(C)NC(C)=C(C(=O)OCC)C1c1ccc(C)o1,1.8
20,CC1CN(C(=O)COC(=O)c2cc(Cl)ccc2Cl)CC(C)O1 (stereo not drawn),> 51.9
21,O=[N+]([O-])c1ccc(O)c(Nc2ncnc3ccccc23)c1,1.4
22,COc1ccc(-c2cn(-c3ccccc3)c(=S)[nH]2)cc1OC,22.6
23,O=S(=O)(c1ccccc1)c1cnc(-c2ccccc2)nc1N1CCCC1,< 0.3
24,COc1ccc(/C=N/NC(=O)c2cccnc2)cc1CN1CCOCC1,> 53.2

row,Compound,solubility kinetic [µg/mL]
1,CC(C)(C)Nc1nc(Cl)nc(NCCN2CCOCC2)n1,46.1
2,Cc1ccsc1C(=O)N1CCN(c2ccccn2)CC1,> 43.1
3,COc1ccc(NS(=O)(=O)c2cccc3ccccc23)cc1,22.4
4,CCOP(=O)(c1ccccc1)C(O)c1ccc([N+](=O)[O-])cc1 (stereo not drawn),> 48.2
5,CC(=O)CSc1nnc2cc(C)c3ccccc3n12,> 40.7
6,O=C(CCl)N1c2ccccc2SCC1c1ccccc1 (stereo not drawn),2.7
7,N#C/C(=C\c1ccccc1[N+](=O)[O-])C(=O)NCc1ccccc1,> 46.1
8,CCS(=O)(=O)c1ccc2c(c1)NC(=O)C(CCO)O2 (stereo not drawn),40.4
9,O=C(Nc1ccccc1C(=O)Nc1ccc(Cl)cc1)c1cccnc1,0.6
10,C=Cn1ccnc1CC(O)c1ccc(OC)cc1 (stereo not drawn),33.9
11,COc1ccc(C(=O)NCC(=O)N/N=C(\C)c2ccco2)cc1OC,> 51.8
12,COc1ccc(CN(C)C(=O)c2ccncc2)c(OC)c1,> 42.9
13,CC(C)c1csc2nc3n(c(=O)c12)CCCCC3,32.9
14,CCCS(=O)(=O)NCCc1csc(-c2ccc(OC)c(OC)c2)n1,51.7
15,O=C(Cn1c(=O)oc2ccccc21)NCC1COc2ccccc2O1 (stereo not drawn),> 51.1
16,NC(=O)CCN1CCC(c2nc3ccccc3s2)CC1,35.3
17,NC(=O)c1ccc(N2CCC(C(N)=O)CC2)c([N+](=O)[O-])c1,38.4
18,COc1ccccc1NS(=O)(=O)c1ccc(C)c(C(=O)Nc2cc(C)on2)c1,22.4
19,COc1cc(C(=O)COC(=O)c2ccncc2)cc(OC)c1OC,> 49.7
20,CC1(C)Cc2nc(-c3ccccc3)nc(SCC(O)CO)c2CO1 (stereo not drawn),51.7
21,Cc1nc2c3cc(Cl)ccc3n(CCN3CCOCC3)c2s1,7.7
22,CC(C)(C)OC(=O)CN1C(=O)NC2(CCCc3ccccc32)C1=O (stereo not drawn),> 49.6
23,CC(OC(=O)c1ccc([N+](=O)[O-])cc1)C(=O)NCC1CCCCC1 (stereo not drawn),5.6
24,CCCCOc1ccccc1C1NC(=O)CCC1[N+](=O)[O-] (stereo not drawn),> 43.9

row,Compound,solubility kinetic [µg/mL]
1,CCOc1ccc(CC(=O)Nc2nccs2)cc1OCC,31.7
2,CN/C(=C\[N+](=O)[O-])NCCSCc1csc(CN(C)C)n1,> 49.7
3,COc1ccc(Cc2nnc(NCCO)[nH]c2=O)cc1,> 41.4
4,c1ccc(CCNC2=NCCS2)cc1,> 30.9
5,CC(Nc1ccccc1)c1cccnc1 (stereo not drawn),> 29.7
6,Cn1c(O)c(/C=C2\C=c3ccccc3=NC2=O)c(=O)n(C)c1=O,> 46.7
7,Cc1cc(N2CC(C)OC(C)C2)n2cc(-c3ccccc3)nc2n1 (stereo not drawn),15.4
8,CC(C)NC(=O)c1sc2c(c1C(=O)Nc1cccnc1)CCCC2,6.4
9,CCC(CO)NCc1ccccc1OC(C)C.Cl (stereo not drawn),> 41.1
10,CCCN(CC(=O)Nc1ccccc1OC)C(=O)Cc1ccccc1F,38.9
11,Cc1ccccc1OCC(=O)NCCCNC(=O)c1ccccn1,> 49.1
12,O=C(COC(=O)c1ccccc1Br)NC1CCCC1,> 48.9
13,Cc1nc(-c2ccc(NC(=O)C3CC3)cc2)cs1,13.3
14,CCOc1ccc(S(=O)(=O)NCCC(=O)OCC(=O)NC(=O)c2cccn2C)cc1,22.2
15,S=c1nc(-c2ccc(Br)cc2)[nH]c2ccccc12,0.7
16,C=CCn1c(O)c(C(CC)=NCc2ccco2)c(=O)[nH]c1=O,> 45.5
17,O=C(NC12CC3CC(CC(C3)C1)C2)c1ccc(N2CCNCC2)c([N+](=O)[O-])c1,40.8
18,O=C(CN1CCN(Cc2ccccc2)CC1)Nc1nc2ccccc2s1,47.4
19,O=C(Nc1c[nH]c(=O)[nH]c1=O)c1ccccc1Cl,> 39.8
20,CC1C(=O)Nc2ccc(S(=O)(=O)N3CCCCCC3)cc21 (stereo not drawn),> 46.3
21,O=C(Nc1ccc(Cl)cc1)Nc1ccc(C(=O)N2CCOCC2)cc1,1.1
22,O=C1NC2=C(C(=O)CCC2)C(c2ccccc2)N1 (stereo not drawn),> 36.3
23,COc1ccc(CNC(=O)Nc2ccccc2)cc1,13.5
24,CCCN1CNC(=S)N(c2cccc(C)c2)C1,37.2

row,Compound,solubility kinetic [µg/mL]
1,O=C(CN1C(=O)NC2(CCCCCCC2)C1=O)NCc1ccccc1,47.7
2,COc1ccc(NC(=S)N2CCCC2)c(OC)c1,> 40
3,Cc1cccc(C(=O)OCC(=O)NC(C)CCc2ccccc2)c1O (stereo not drawn),< 0.7
4,Cl.Nc1ccc2nc(CCCO)[nH]c2c1,> 39.6
5,COc1ccc(NS(=O)(=O)c2ccc(C(=O)NCC3(N4CCOCC4)CCCCC3)cc2)cc1,13.8
6,Cc1cc(C(=O)NC2CCCN(Cc3ccc(Cl)cc3)C2)no1 (stereo not drawn),39.7
7,CC(C)c1nc2sc3c(SCC(N)=O)ncnc3c2c2c1CCC2,0.5
8,CC(C)Cc1ccc(C(=O)NCc2ccc3c(c2)OCO3)o1,28.3
9,O=C(Nc1ccncc1)Nc1ccc(Br)cc1Cl,1.9
10,COC(=O)CN1C(=O)N/C(=C/c2ccccc2OC)C1=O,> 43.5
11,CCOC(=O)c1[nH]c(C=O)c(C(=O)OCC)c1C,20.7
12,Cc1noc(NC(=O)c2ccc(Cl)cc2)c1Cl,28.2
13,CCOc1ccccc1CN1CCN(Cc2ccon2)CC1CCO (stereo not drawn),48.9
14,CSc1ccccc1C(=O)Nc1cc([N+](=O)[O-])ccc1C,2
15,Cc1ccc(C)c(OC(=O)c2cccnc2)c1,16.9
16,N#CC1=C(N)N(c2ccc(Cl)c(Cl)c2)C(=O)C1,> 40.2
17,CC(=O)Nc1sc(C)c(C)c1C(=O)OCC(=O)Nc1ccc(S(N)(=O)=O)cc1,8.4
18,Cc1cc(C(F)(F)F)nn1CC(=O)N(C)c1ccccc1,> 44.6
19,Cc1ccccc1S(=O)(=O)/N=C(/Nc1nc2ccccc2s1)c1ccccc1,1.1
20,CC(C)C(C(=O)NC1=NCCS1)c1ccc(Cl)cc1 (stereo not drawn),1.7
21,N#Cc1ccsc1NC(=O)COC(=O)CCS(=O)(=O)c1ccccc1,> 56.8
22,CCCc1nc2c(=O)n(C)c(=O)nc-2n(C)n1,> 35.3
